Laboratory results taken from patent publication US10577362B2, “Substituted 2, 4-diamino-quinoline derivatives for use in the treatment of proliferative diseases” (GENOSCIENCE PHARMA, priority 2016, dated 2020).
Counter-ions that a name gives are not always drawn.

How the values were obtained:
Assay type in all cases: cell-based, human
[1] = test system: 786-O (renal adenocarcinoma) cell line; test: CellTiter-Glo luminescent cell viability assay, 786-O; settings: Homo sapiens, 786-0; for EC50: 786-O cell line, 72 h incubation, CellTiter-Glo, read-out: EC50, growth inhibition of 786-O; for viability at 4 µM / viability at 10 µM: 786-O, 72 h; for viability at 4 µM: compound at 4 μM; for viability at 10 µM: compound at 10 μM
Procedure, shortened: (§1)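 Luminescent signal, normalised to diluent-treated cultures, defines % viability; EC50 is the concentration lowering it to 50%. Cells had been exposed to compound for 72 h at 37 °C in medium with 10% FBS, at a constant H2O or DMSO percentage.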

[2] = test system: HepG2 (hepatocellular carcinoma) cell line; test: CellTiter-Glo luminescent cell viability assay, HepG2; settings: Homo sapiens; for EC50: HepG2 cell line, 72 h incubation, CellTiter-Glo, read-out: EC50, growth inhibition of HepG2; for viability at 4 µM / viability at 10 µM: HepG2, HepG, 72 h; for viability at 4 µM: compound at 4 μM; for viability at 10 µM: compound at 10 μM
Procedure, shortened: (§2)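 EC50 is the concentration cutting CellTiter-Glo luminescence to half that of H2O- or DMSO-treated controls after 72 h compound exposure, with each point in at least duplicate. HepG2, Huh7 and PANC-1 were seeded the night before; MOLM-14 1 h prior; all cultured with 10% FBS, 37 °C, 5% CO2.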

[3] = test system: MOLM-14 (acute myeloid leukemia) cell line; test: CellTiter-Glo luminescent cell viability assay, MOLM-14; settings: Homo sapiens; for EC50: MOLM-14 cell line, 72 h incubation, CellTiter-Glo, read-out: EC50, growth inhibition of MOLM-14; for viability at 4 µM: MOLM-14, compound at 4 μM; for viability at 4 µM / viability at 10 µM: 72 h; for viability at 10 µM: MOLM-14, compound at 10 μM
Procedure, shortened: as §2

[4] = test system: Huh7 (hepatocellular carcinoma) cell line; test: CellTiter-Glo luminescent cell viability assay, Huh7; settings: Homo sapiens, Huh-7; for EC50: Huh7 cell line, 72 h incubation, CellTiter-Glo, read-out: EC50, growth inhibition of Huh7; for viability at 4 µM: Huh7, compound at 4 μM; for viability at 4 µM / viability at 10 µM: 72 h; for viability at 10 µM: Huh7, compound at 10 μM
Procedure, shortened: as §2

[5] = test system: HCT-116 (colorectal carcinoma) cell line; test: CellTiter-Glo luminescent cell viability assay, HCT-116; settings: Homo sapiens; for EC50: HCT-116 cell line, 72 h incubation, CellTiter-Glo, read-out: EC50, growth inhibition of HCT-116; for viability at 4 µM: HCT-116, compound at 4 μM; for viability at 4 µM / viability at 10 µM: 72 h; for viability at 10 µM: HCT-116, compound at 10 μM
Procedure, shortened: as §1

[6] = test system: A375 (malignant melanoma) cell line; test: CellTiter-Glo luminescent cell viability assay, A375; settings: Homo sapiens, A-375; for EC50: A375 cell line, 72 h incubation, CellTiter-Glo, read-out: EC50, growth inhibition of A375; for viability at 4 µM: A375, compound at 4 μM; for viability at 4 µM / viability at 10 µM: 72 h; for viability at 10 µM: A375, compound at 10 μM
Procedure, shortened: as §1

| Structure (SMILES) | EC50 [1] [µM] | EC50 [2] [µM] | EC50 [3] [µM] | EC50 [4] [µM] | EC50 [5] [µM] | EC50 [6] [µM] | viability at 4 µM [1] [%] | viability at 10 µM [1] [%] | viability at 4 µM [2] [%] | viability at 10 µM [2] [%] | viability at 4 µM [3] [%] | viability at 10 µM [3] [%] | viability at 4 µM [4] [%] | viability at 10 µM [4] [%] | viability at 4 µM [5] [%] | viability at 10 µM [5] [%] | viability at 4 µM [6] [%] | viability at 10 µM [6] [%] |
| --- | --- | --- | --- | --- | --- | --- | --- | --- | --- | --- | --- | --- | --- | --- | --- | --- | --- | --- |
| Clc1ccc(CNc2cc(N3CC[C@@H](Oc4ccccc4)C3)c3ccccc3n2)cc1 [Compound 3012, (3R) 2-(4-chlorobenzylamino)-4-[3-(phenoxy)pyrrolidin-1-yl]quinoline hydrochloride] | 0.5 to 5 | 0.5 to 5 | 0.5 to 5 | 0.5 to 5 | 0.5 to 5 | 0.5 to 5 | – | – | – | – | – | – | – | – | – | – | – | – |
| Clc1ccc(CNc2cc(N3CC[C@@H](Oc4ccccn4)C3)c3ccccc3n2)cc1 [Compound 3026, (3R) 2-(4-chlorobenzylamino)-4-[3-(pyridin-2-yloxy)pyrrolidin-1-yl]quinoline hydrochloride] | 0.5 to 5 | 0.5 to 5 | 0.5 to 5 | 0.5 to 5 | 0.5 to 5 | 0.5 to 5 | – | – | – | – | – | – | – | – | – | – | – | – |
| O[C@H]1CCN(c2cc(NCc3ccc(Cl)cc3)nc3ccccc23)C1 [Compound 3060, (3S) 2-(4-chlorobenzylamino)-4-(3-hydroxypyrrolidin-1-yl)-quinoline hydrochloride] | 5 to 10 | 0.5 to 5 | 0.5 to 5 | 0.5 to 5 | 0.5 to 5 | 0.5 to 5 | – | – | – | – | – | – | – | – | – | – | – | – |
| Clc1ccc(CNc2cc(N3CC[C@H](Oc4ccccn4)C3)c3ccccc3n2)cc1 [Compound 3098, (3S) 2-(4-chlorobenzylamino)-4-[3-(pyridin-2-yloxy)pyrrolidin-1-yl]quinoline hydrochloride] | 0.5 to 5 | 0.5 to 5 | 0.5 to 5 | 0.5 to 5 | 0.5 to 5 | 0.5 to 5 | – | – | – | – | – | – | – | – | – | – | – | – |
| Cc1cc(Nc2nc3ccccc3c(N3CCC(NC(C)(C)C)CC3)c2C#N)ccc1Nc1nccc(-c2cccnc2)n1 [Compound 3131CN, 2-[4-(4-(pyridin-3-yl)pyrimidin-2-ylamino)-3-methylphenylamino]-3-cyano-4-(4-tert-butylaminopiperidin-1-yl)quinoline] | – | – | – | – | – | – | 42.6 | 0.1 | 80.6 | 0.1 | 80.1 | 7.3 | 87 | 69.8 | 63.9 | 0.1 | 79.4 | 0.1 |
| N#Cc1c(NCc2ccc(Cl)cc2)nc2ccccc2c1N1CCCC(Oc2ccccc2)C1 (stereo not shown) [Compound 3206CN, 2-(4-chlorobenzylamino)-3-cyano-4-(3-phenoxypiperidin-1-yl)quinoline] | – | – | – | – | – | – | 79.9 | 75.1 | 72.4 | 65 | 96 | 107 | 107 | 95.1 | 97.9 | 91.2 | 111 | 104 |
| COc1ccc(OC2CCN(c3c(C#N)c(NCc4ccc(Cl)cc4)nc4ccccc34)CC2)cc1 [Compound 3224CN, 2-(4-chlorobenzylamino)-3-cyano-4-[4-(4-methoxyphenoxy)piperidin-1-yl]quinoline] | – | – | – | – | – | – | 96.3 | 88.9 | 91.6 | 70 | 112 | 94.6 | 116 | 90 | 89.8 | 65.1 | 96 | 91.7 |
| N#Cc1c(NCc2ccc(Cl)cc2)nc2ccccc2c1N1CCC(Oc2ccc(Cl)cc2)CC1 [Compound 3226CN, 2-(4-chlorobenzylamino)-3-cyano-4-[4-(4-chlorophenoxy)piperidin-1-yl]quinoline] | – | – | – | – | – | – | 96 | 89.8 | 94 | 82.8 | 101 | 97.8 | 117 | 109 | 96.8 | 86.8 | 97.8 | 94.1 |
| N#Cc1c(NCc2ccc(Cl)cc2)nc2ccccc2c1N1CCC(Oc2cccc(F)c2)CC1 [Compound 3228CN, 2-(4-chlorobenzylamino)-3-cyano-4-[4-(3-fluorophenoxy)piperidin-1-yl]quinoline] | – | – | – | – | – | – | 97.9 | 92.9 | 96.7 | 86.7 | 107 | 100 | 117 | 108 | 101 | 85.2 | 98 | 91.7 |
| COc1ccc(OC2CCCN(c3c(C#N)c(NCc4ccc(Cl)cc4)nc4ccccc34)C2)cc1 (stereo not shown) [Compound 3232CN, 2-(4-chlorobenzylamino)-3-cyano-4-[3-(4-methoxyphenoxy)piperidin-1-yl]quinoline] | – | – | – | – | – | – | 79.9 | 73.5 | 79.9 | 72.3 | 91.1 | 99.8 | 98.7 | 90.3 | 93.9 | 82.9 | 104 | 99.4 |
| Cc1ccc(OC2CCCN(c3c(C#N)c(NCc4ccc(Cl)cc4)nc4ccccc34)C2)cc1 (stereo not shown) [Compound 3234CN, 2-(4-chlorobenzylamino)-3-cyano-4-[3-(4-methylphenoxy)piperidin-1-yl]quinoline] | – | – | – | – | – | – | 89.8 | 80.5 | 89.8 | – | 94.4 | 92 | 99.2 | 95.5 | 93.8 | 90.7 | 107 | 102 |
| N#Cc1c(NCc2ccc(Cl)cc2)nc2ccccc2c1N1CCCC(Oc2ccc(F)cc2)C1 (stereo not shown) [Compound 3238CN, 2-(4-chlorobenzylamino)-3-cyano-4-[3-(4-fluorophenoxy)piperidin-1-yl]quinoline] | – | – | – | – | – | – | 90.7 | 86.1 | 95.9 | 90.8 | 101 | 91.6 | 97.7 | 93.7 | 97.8 | 85.1 | 106 | 102 |
| N#Cc1c(NCc2ccc(Cl)cc2)nc2ccccc2c1N1CCCC(Oc2cccc(F)c2)C1 (stereo not shown) [Compound 3240CN, 2-(4-chlorobenzylamino)-3-cyano-4-[3-(3-fluorophenoxy)piperidin-1-yl]quinoline] | – | – | – | – | – | – | 98.2 | 94.5 | 97 | – | 106 | 113 | 123 | 113 | 99.4 | 95.8 | 95.6 | 94.9 |
